Assays:
Assay type in all cases: in vivo, human
[1] = test system: patients with Retinitis Pigmentosa; experiment: Clinical observation, retinitis pigmentosa patients; details: seven patients: three 1 gr 2 times per day oral, four 2% eye drops 3 times per day
Procedure: The invention will be even further illustrated by the description of the clinical examples which follow and which, of course, are not limiting in nature. In these examples, the active ingredient, the N-acetyl-DL-leucine, was administered continuously (i.e., at least once a day) in oral or topical form, in an amount of 2 gr per day in the case of the oral form and 2% in the case of eye drops. This disorder corresponds to a dystrophy in the photoreceptors (cones and rods). It is characterized by the appearance of night blindness in infancy or adolescence, progressive contractions of the equatorial annular peripheral visual filed and results in a substantial loss in visual acuity or even blindness by adulthood. The N-acetyl-DL-leucine was used and induced an improvement of visual function: Seven patients were treated: three of them received 1 gr 2 times per day via oral administration; and four of them were subjected to a topical administration (2% eye drops), 3 times per day. All of them noticed an improvement of their visual acuity and visual field.

[2] = test system: patients with Starpardt's Disease; experiment: Clinical observation, Stargardt's disease twin patients; details: eye drops; one of two twin patients
Procedure: The invention will be even further illustrated by the description of the clinical examples which follow and which, of course, are not limiting in nature. In these examples, the active ingredient, the N-acetyl-DL-leucine, was administered continuously (i.e., at least once a day) in oral or topical form, in an amount of 2 gr per day in the case of the oral form and 2% in the case of eye drops. Two twin patients treated with N-acetyl-DL-leucine in the form of eye drops noticed an improvement of their visual acuity by 1/10 for one of them, and by 2/10 to 3/10 for the […].

[3] = test system: patients with a macular degeneration; experiment: Clinical observation, age-related or myopia-related macular degeneration; details: eleven patients; eye drops or tablets
Procedure: (§1) The invention will be even further illustrated by the description of the clinical examples which follow and which, of course, are not limiting in nature. In these examples, the active ingredient, the N-acetyl-DL-leucine, was administered continuously (i.e., at least once a day) in oral or topical form, in an amount of 2 gr per day in the case of the oral form and 2% in the case of eye drops. Eleven patients with a macular degeneration which were treated with N-acetyl-DL-leucine (eye drops or tablets) noticed an improvement of their visual acuity.

[4] = test system: patients with known glaucoma; experiment: Clinical observation, glaucomatous neuropathy or glaucoma
Procedure: as §1, with “Patients” for “Eleven patients”, “with known glaucoma experienced” for “with”, “decrease in their occular tension, and” for “macular degeneration which were treated with N-acetyl-DL-leucine (eye drops or tablets) noticed”, “acuity and visual field in a very short time as soon as the treatment was administrated. […] IV) Ametropia.” for “acuity.”

patients with myopia = experiment: Clinical observation, myopia; details: seven patients; eye drops
Procedure: (§2) The invention will be even further illustrated by the description of the clinical examples which follow and which, of course, are not limiting in nature. In these examples, the active ingredient, the N-acetyl-DL-leucine, was administered continuously (i.e., at least once a day) in oral or topical form, in an amount of 2 gr per day in the case of the oral form and 2% in the case of eye drops. More particularly, but not exclusively, it relates to eyedrops composed of N-acetyl-DL-leucine, which are intended for improving (i.e., in the present case, decreasing) the effects of presbyopia, myopia, hypermetropia and astigmatism, for stabilizing them or even for reversing the evolutive course thereof. • Myopia: seven patients were evaluated and received the N-acetyl-DL-leucine in the form of eye drops. • Result: in addition to the improvement of their visual acuity, the visual field, the refractive value was reduced. One can deduce therefrom that the N-acetyl-DL-leucine not only improves vision but also treats myopia. • Presbyopia: fourteen patients received the N-acetyl-DL-leucine in the form of eye drops and experienced an improvement of their near vision and a decrease in presbyopia. […]

patients with presbyopia = experiment: Clinical observation, presbyopia; details: fourteen patients; eye drops
Procedure: as §2

[5] = test system: patients with hypermetropia; experiment: Clinical observation, hypermetropia; details: eye drops
Procedure: as §2

astigmatic subjects = experiment: Clinical observation, astigmatism; details: eye drops
Procedure: as §2

[6] = test system: patients with visual difficulties at night (hemeralopia); experiment: Clinical observation, night vision (hemeralopia); details: all the patients with hemeralopia
Procedure: as §1, with “drops.” for “drops. Eleven patients with a macular degeneration which were treated with N-acetyl-DL-leucine (eye drops or tablets) noticed an improvement of their visual acuity.”

[7] = test system: "normal" patients without ocular pathology (aging individuals); experiment: Clinical observation, age-related physiological vision decline / normal patients; details: in many cases; absence of any occular pathology
Procedure: as §1, with “[…] In many cases,” for “Eleven patients with a macular degeneration which were treated with”, “improved visual function (visual acuity, contrast vision and visual field) in the absence” for “(eye drops or tablets) noticed an improvement”, “any occular pathology.” for “their visual acuity.”

Question: What does the source list for `CC(=O)NC(CC(C)C)C(=O)O` (racemic) [N-acetyl-DL-leucine]?
Answer: visual acuity [1]: improvement; visual field [1]: improvement; improvement of visual acuity [2]: 1/10; visual acuity [3]: improvement; occular tension ([4]; in a very short time as soon as the treatment was administrated): decrease; visual field ([4]; oral route or eye drops): regression of the deficiency; visual acuity ([4]; oral route or topical route (eye drops)): marked improvement; refractive value (patients with myopia): reduced; visual acuity (patients with myopia): improvement; visual field (patients with myopia): improvement; near vision (patients with presbyopia): improvement; presbyopia (patients with presbyopia): decrease; observations in hypermetropia (near vision, ametropia) [5]: the same observations as for presbyopia; visual acuity (astigmatic subjects): improvement; night vision [6]: greatly improved; visual function (visual acuity, contrast vision and visual field) [7]: improved

Source: patent publication US9155719B2, “N-acetyl-DL-leucine, neuroprotective and retinoprotective medicament” (priority 2010, dated 2015)
